{
  "source": "ChEMBL document CHEMBL5226281",
  "about": "“Synergistic effects of curcumin and its analogs with other bioactive compounds: A comprehensive review” (Eur J Med Chem, 2021)",
  "key": {"Plasmodium falciparum": {"test_system": "Plasmodium falciparum", "assay": "Antimalarial activity against Plasmodium falciparum infected in mouse assessed as survival at 0.5 mg/kg, po measured after 40 days relative to control", "type": "functional", "conditions": "time 40 day"}, "HCT-116": {"test_system": "HCT-116", "assay": "Synergistic antiproliferative activity against human HCT-116 cells assessed as inhibition of cell growth", "type": "functional, cell-based"}, "Y79": {"test_system": "Y79", "assay": "Antiproliferative activity against human Y79 cells assessed as inhibition of cell growth incubated for 48 hrs by MTT assay", "type": "functional, cell-based", "conditions": "Y79, 48 h"}, "DLD-1": {"test_system": "DLD-1", "assay": "Synergistic antiproliferative activity against human DLD-1 cells assessed as inhibition of cell growth", "type": "functional, cell-based"}, "[1]": {"assay": "Induction of apoptosis in rat AY-27 cells at 10 uM by Annexin V-PE and 7AAD staining based flow cytometry", "type": "functional"}, "HSC-2": {"test_system": "HSC-2", "assay": "Synergistic cytotoxicity against human HSC-2 cells", "type": "functional, cell-based"}, "MCF7": {"test_system": "MCF7", "assay": "Synergistic antiproliferative activity against human MCF7 cells assessed as inhibition of cell growth", "type": "functional", "set-up": "scale not given: the % may be the effect or the level left"}, "[2]": {"target": "Mitogen-activated protein kinase 8 (Homo sapiens) (UniProt P45983)", "sequence (P45983 whole entry)": "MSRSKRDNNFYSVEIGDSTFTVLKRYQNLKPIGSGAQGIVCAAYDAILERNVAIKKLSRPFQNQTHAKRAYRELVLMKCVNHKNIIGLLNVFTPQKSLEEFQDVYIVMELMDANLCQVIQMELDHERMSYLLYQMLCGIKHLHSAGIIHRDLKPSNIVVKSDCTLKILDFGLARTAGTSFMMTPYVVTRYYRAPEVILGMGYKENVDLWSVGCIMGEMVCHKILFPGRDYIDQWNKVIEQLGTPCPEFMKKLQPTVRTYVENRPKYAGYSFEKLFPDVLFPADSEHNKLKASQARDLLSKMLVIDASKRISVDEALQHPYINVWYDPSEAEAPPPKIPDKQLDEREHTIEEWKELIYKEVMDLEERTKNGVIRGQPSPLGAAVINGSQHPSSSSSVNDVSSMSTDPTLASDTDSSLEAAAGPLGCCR", "assay": "Activation of JNK in human CMT12 cells", "type": "cell-based"}, "[3]": {"assay": "Antiproliferative activity against human WERI-Rb-1 cells assessed as inhibition of cell growth incubated for 48 hrs by MTT assay", "type": "functional, cell-based", "conditions": "WERI-Rb-1, 48 h"}, "[4]": {"assay": "Antiproliferative activity against rat AY-27 cells assessed as inhibition of cell growth incubated for 3 hrs by MTT assay", "type": "functional", "set-up": "scale not given: the % may be the effect or the level left"}},
  "data": [
    {"smiles": "C[C@@H]1CC[C@H]2[C@@H](C)C(=O)O[C@@H]3O[C@@]4(C)CC[C@@H]1[C@]32OO4", "note": "[ARTEMISININ]", "values": [
      {"measurement": "Activity", "setting": "Plasmodium falciparum", "result": 100, "unit": "%"}
    ]},
    {"smiles": "COc1cc(/C=C/C(=O)CC(=O)/C=C/c2ccc(O)c(OC)c2)ccc1O", "note": "[CURCUMIN]", "values": [
      {"measurement": "IC50", "setting": "HCT-116", "result": 10, "unit": "µM"},
      {"measurement": "IC50", "setting": "Y79", "result": 30, "unit": "µM"},
      {"measurement": "IC50", "setting": "DLD-1", "result": 10, "unit": "µM"},
      {"measurement": "Activity", "setting": "[1]", "result": 36, "unit": "%"},
      {"measurement": "IC50", "setting": "HSC-2", "result": 3.1, "unit": "µM"},
      {"measurement": "Activity", "setting": "MCF7", "result": 65.92, "unit": "%"},
      {"measurement": "Activity", "setting": "[2]", "result": 30, "unit": "%"},
      {"measurement": "IC50", "setting": "[3]", "result": 25, "unit": "µM"},
      {"measurement": "Activity", "setting": "[4]", "result": 85, "unit": "%"}
    ]},
    {"smiles": "Oc1ccc(/C=C/c2cc(O)cc(O)c2)cc1", "note": "[RESVERATROL]", "values": [
      {"measurement": "IC50", "setting": "HSC-2", "result": 3.1, "unit": "µM"}
    ]}
  ]
}
